Active and inactive are the calls of the source.
How the values were obtained:
[1] = molecular target: T1, Protein skinhead-1 (Caenorhabditis elegans, UniProt P34707); type: functional
T1 sequence (P34707 whole entry): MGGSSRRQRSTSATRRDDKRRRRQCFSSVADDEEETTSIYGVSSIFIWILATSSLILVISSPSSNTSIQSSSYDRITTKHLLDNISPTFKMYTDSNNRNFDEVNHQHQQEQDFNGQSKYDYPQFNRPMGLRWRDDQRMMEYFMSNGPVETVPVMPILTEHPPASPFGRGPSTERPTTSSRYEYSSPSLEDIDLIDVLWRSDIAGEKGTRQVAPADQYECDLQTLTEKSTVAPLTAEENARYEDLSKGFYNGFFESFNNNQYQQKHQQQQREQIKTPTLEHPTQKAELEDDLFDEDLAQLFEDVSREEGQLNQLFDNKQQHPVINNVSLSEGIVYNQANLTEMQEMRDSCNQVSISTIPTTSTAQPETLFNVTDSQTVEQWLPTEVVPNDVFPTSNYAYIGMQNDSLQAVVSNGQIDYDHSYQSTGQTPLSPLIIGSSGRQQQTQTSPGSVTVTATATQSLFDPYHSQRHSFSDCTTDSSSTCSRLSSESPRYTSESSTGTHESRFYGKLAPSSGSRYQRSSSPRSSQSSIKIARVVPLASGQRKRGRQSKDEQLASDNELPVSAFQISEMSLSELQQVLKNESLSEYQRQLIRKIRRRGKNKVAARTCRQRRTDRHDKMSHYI

[2] = molecular target: Cytochrome P450 3A4 (Homo sapiens, UniProt P08684);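 further: CYP3A4 tested as one member of a cytochrome P450 panel screen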
[3] = molecular target: Large T antigen (Simian virus 40, UniProt P03070); type: functional, Betapolyomavirus macacae;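 further: Confirmatory-stage PubChem screen for compounds that inhibit SV40 T antigen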
[4] = molecular target: T2, Aminopeptidase N (Plasmodium falciparum FcB1/Columbia, UniProt O96935); assay: malaria alanyl aminopeptidase activity blockers – biochemical, fluorogenic H-Leu-NHMec substrate, 1536-well (AID 1445); parameters: species or system Plasmodium falciparum 3D7, 3D7
T2 sequence (O96935 whole entry): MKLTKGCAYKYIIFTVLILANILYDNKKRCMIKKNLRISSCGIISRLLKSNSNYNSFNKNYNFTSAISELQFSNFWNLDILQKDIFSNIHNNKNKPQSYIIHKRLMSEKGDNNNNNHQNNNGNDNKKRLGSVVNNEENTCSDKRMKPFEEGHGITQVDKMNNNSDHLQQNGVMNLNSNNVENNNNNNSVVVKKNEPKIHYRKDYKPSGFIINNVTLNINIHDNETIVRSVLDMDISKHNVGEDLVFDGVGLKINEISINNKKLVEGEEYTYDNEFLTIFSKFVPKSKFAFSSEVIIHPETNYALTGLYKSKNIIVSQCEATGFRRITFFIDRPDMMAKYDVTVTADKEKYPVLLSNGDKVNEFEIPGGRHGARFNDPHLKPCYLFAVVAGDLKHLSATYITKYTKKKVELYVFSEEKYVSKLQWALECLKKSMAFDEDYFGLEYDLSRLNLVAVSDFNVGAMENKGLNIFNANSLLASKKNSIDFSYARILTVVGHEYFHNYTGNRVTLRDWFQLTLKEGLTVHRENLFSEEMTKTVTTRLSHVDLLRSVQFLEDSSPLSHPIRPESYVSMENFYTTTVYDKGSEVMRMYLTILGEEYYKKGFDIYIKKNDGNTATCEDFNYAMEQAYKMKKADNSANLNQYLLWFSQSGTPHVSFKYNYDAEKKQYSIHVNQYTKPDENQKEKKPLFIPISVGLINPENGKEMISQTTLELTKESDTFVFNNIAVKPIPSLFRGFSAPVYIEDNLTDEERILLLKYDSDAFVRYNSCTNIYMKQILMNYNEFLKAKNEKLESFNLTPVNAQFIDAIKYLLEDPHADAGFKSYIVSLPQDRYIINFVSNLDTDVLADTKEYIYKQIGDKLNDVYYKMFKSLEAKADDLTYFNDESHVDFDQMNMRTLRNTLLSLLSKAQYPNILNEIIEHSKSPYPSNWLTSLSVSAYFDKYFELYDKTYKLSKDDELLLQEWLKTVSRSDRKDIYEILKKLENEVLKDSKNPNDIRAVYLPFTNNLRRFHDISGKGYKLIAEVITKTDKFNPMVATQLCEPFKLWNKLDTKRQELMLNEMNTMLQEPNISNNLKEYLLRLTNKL

[5] = molecular target: Induced myeloid leukemia cell differentiation protein Mcl-1 (Homo sapiens, UniProt Q07820); type: functional
[6] = molecular target: Paired box protein Pax-8 (Homo sapiens, UniProt Q06710); assay: PAX8 transcriptional activity inhibition in RMG-I – RMG-I cells, luciferase, cherry-pick, dose response (AID 687027); type: functional, cell-based;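 further: luciferase reporter driven by Pax8 target thyroperoxidase promoter measured by SteadyGlo luminescence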
[7] = test system: BJ; assay: cells; type: functional, cell-based; settings: Homo sapiens
[8] = test system: Vero; assay: cells; type: functional; settings: Chlorocebus sabaeus
[9] = molecular target: Heat shock protein HSP 90-alpha (Homo sapiens, UniProt P07900); type: functional, organism-based
[10] = molecular target: T3, Heat shock factor protein 1 (Mus musculus, UniProt P38532); assay: decrease of HSF1-responsive luciferase luminescence – cell-based, NIH3T3, dose retest, confirmation (AID 2382); type: functional;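 further: NIH3T3 fibroblasts with HSF1-driven luciferase reporter stressed by proteasome inhibitor MG132; luminescence from HSF1-driven luciferase expression after 8 hours of MG132 stress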
T3 sequence (P38532 whole entry): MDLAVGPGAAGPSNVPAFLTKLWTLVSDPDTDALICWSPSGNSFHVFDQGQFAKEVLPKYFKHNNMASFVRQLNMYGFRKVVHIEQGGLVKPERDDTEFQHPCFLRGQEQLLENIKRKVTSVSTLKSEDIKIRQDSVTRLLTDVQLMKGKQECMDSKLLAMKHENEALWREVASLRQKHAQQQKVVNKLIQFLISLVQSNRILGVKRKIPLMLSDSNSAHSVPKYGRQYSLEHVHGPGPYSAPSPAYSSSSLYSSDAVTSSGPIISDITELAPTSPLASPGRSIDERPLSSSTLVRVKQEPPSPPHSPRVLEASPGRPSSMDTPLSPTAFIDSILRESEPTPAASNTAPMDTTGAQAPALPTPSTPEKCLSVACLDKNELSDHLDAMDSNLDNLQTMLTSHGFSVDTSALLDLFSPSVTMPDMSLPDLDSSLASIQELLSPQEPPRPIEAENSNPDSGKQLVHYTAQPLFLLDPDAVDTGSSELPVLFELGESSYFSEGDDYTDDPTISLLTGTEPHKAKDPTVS

[11] = test system: BJ; assay: BJ-TERT fibroblast viability loss – cell-based, RAS-independent, luminescence, dose response (AID 1933); type: functional; settings: Homo sapiens
[12] = DRD fibroblast viability loss – cell-based, non-viral oncogenic, luminescence, dose response (AID 1934); type: functional; settings: Homo sapiens
[13] = test system: BJ; assay: BJ-TERT-LT-ST fibroblast viability loss – cell-based, RAS-independent, luminescence, dose response (AID 1935); type: functional; settings: Homo sapiens;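 further: BJ fibroblasts immortalized with TERT plus LT and ST oncogenes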
[14] = Luminescence Cell-Based Dose Retest to Confirm Inhibitors of Cancer Stem Cells. [Related pubchem assays (depositor defined):AID2717, AID2721]; type: functional; settings: Homo sapiens
[15] = molecular target: Cytochrome P450 2C9 (Homo sapiens, UniProt P11712)
[16] = molecular target: Cytochrome P450 2C19 (Homo sapiens, UniProt P33261); assay: Cytochrome panel assay with activity outcomes. Panel member name: p450-cyp2c19 Compounds with AC50 equal or less than 10 uM are considered active; type: functional; settings: read-out: AC50
[17] = activation of miR-122 Renilla sensor silencing – cell-based, Huh7 psiCHECK-miR122, Renilla luciferase, cherry-picked, dose response (AID 651956); type: functional;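 further: huh7 hepatoma cells stably carrying a psiCHECK-2 miR-122 sensor plasmid; renilla luciferase signal reporting endogenous miR-122 activity after 48 h compound exposure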
[18] = viability of uninfected HEp-2 cells – cell-based, HTS, cytotoxicity control for RSV inhibitor project, dose response (AID 2410); type: functional; settings: human respiratory syncytial virus
[19] = off-target signal loss in HeLa-CEM21 co-culture – HeLa F-luc CTL cells, cherry-picked, counter-screen for HIV-1 Env fusion inhibitor project, dose response (AID 652040); type: functional, cell-based;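 further: potency for signal decrease marking cytotoxic or nonspecific inhibition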
[20] = blockers of HIV-1 ZM109 envelope-driven cell-cell fusion – HeLa effector, CEM target cells, luciferase, cherry-pick, dose response (AID 652058); type: functional, cell-based;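 further: luciferase signal from HIV-1 Env mediated cell-cell fusion of effector and target cells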
[21] = blockers of HIV-1 envelope-mediated cell-cell fusion – cherry-pick, dose response (AID 652057); type: functional, cell-based
[22] = HIV-1 AD8 envelope cell-cell fusion blockers – cherry-pick, dose response (AID 652062); type: functional, cell-based;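 further: luciferase signal from cell-cell fusion driven by HIV-1 clade B AD8 Env; potency is for inhibitors of fusion seen as a drop in luminescence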
[23] = molecular target: Cytochrome P450 2D6 (Homo sapiens, UniProt P10635);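 further: CYP2D6 member of a cytochrome P450 panel assay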
[24] = intracellular Trypanosoma cruzi inhibitors in host cells – cell-based, plate reader, cherry-pick samples, set 3, dose response (AID 651818); type: functional;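 further: compounds incubated with infected cells for about four days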

Chain of Cytochrome P450 3A4 (P08684 whole entry): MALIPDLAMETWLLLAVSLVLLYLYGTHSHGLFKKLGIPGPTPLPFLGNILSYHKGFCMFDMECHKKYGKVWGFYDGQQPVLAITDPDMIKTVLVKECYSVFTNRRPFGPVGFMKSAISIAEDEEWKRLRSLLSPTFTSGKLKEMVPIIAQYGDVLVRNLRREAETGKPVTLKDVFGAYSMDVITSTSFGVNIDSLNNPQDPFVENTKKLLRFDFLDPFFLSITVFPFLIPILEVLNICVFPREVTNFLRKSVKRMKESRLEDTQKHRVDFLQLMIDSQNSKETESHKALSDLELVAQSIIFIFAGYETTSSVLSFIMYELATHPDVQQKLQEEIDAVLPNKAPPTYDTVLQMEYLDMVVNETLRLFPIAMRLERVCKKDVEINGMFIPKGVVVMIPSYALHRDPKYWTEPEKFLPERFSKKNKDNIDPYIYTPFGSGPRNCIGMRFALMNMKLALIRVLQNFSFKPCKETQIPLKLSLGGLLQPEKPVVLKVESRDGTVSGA
Chain of Cytochrome P450 2C9 (P11712 whole entry): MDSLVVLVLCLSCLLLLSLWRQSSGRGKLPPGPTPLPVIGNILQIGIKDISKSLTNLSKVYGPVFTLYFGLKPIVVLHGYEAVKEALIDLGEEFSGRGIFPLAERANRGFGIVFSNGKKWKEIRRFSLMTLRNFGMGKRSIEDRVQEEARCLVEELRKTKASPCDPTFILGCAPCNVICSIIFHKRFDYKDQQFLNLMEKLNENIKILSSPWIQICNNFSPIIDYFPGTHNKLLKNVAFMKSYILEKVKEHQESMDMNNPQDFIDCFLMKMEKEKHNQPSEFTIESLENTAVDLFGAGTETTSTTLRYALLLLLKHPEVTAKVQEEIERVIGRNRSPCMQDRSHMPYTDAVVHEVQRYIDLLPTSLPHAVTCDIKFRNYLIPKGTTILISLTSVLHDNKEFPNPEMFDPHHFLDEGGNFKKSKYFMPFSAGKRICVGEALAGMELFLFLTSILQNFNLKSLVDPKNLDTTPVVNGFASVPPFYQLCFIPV
Chain of Induced myeloid leukemia cell differentiation protein Mcl-1 (Q07820 whole entry): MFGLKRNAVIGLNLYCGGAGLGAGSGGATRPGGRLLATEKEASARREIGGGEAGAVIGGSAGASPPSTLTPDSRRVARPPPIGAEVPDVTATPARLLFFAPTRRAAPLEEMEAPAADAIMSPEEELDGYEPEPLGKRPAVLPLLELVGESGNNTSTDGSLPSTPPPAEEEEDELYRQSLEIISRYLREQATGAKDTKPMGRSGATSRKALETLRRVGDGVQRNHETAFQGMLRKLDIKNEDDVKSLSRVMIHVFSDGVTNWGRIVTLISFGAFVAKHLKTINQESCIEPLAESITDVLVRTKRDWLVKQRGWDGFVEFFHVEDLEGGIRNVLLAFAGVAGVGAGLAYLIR
Chain of Cytochrome P450 2D6 (P10635 whole entry): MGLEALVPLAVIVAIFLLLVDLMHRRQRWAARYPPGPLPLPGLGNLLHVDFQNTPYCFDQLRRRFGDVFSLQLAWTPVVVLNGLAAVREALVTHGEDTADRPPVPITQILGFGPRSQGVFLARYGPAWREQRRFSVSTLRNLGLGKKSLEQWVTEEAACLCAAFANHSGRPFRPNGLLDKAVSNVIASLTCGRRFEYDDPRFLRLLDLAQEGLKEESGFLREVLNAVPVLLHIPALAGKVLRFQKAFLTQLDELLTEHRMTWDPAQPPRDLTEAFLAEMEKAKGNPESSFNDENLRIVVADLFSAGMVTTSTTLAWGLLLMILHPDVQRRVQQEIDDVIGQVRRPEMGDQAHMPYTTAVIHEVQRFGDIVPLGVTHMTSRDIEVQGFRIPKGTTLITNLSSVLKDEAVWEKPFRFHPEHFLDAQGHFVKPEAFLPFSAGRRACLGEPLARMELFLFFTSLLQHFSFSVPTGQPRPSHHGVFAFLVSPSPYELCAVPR
Chain of Paired box protein Pax-8 (Q06710 whole entry): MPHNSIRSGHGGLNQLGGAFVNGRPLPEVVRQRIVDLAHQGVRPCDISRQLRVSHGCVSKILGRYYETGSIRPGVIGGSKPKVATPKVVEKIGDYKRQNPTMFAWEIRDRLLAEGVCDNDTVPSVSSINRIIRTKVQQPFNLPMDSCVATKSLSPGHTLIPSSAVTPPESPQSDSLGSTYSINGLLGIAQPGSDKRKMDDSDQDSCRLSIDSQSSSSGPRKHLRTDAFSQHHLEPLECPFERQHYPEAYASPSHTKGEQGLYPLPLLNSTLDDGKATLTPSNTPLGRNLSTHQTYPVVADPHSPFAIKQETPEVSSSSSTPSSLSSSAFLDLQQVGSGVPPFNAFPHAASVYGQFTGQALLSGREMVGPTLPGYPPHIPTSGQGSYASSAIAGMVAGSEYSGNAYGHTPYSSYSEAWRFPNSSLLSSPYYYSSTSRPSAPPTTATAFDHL
Chain of Large T antigen (P03070 whole entry): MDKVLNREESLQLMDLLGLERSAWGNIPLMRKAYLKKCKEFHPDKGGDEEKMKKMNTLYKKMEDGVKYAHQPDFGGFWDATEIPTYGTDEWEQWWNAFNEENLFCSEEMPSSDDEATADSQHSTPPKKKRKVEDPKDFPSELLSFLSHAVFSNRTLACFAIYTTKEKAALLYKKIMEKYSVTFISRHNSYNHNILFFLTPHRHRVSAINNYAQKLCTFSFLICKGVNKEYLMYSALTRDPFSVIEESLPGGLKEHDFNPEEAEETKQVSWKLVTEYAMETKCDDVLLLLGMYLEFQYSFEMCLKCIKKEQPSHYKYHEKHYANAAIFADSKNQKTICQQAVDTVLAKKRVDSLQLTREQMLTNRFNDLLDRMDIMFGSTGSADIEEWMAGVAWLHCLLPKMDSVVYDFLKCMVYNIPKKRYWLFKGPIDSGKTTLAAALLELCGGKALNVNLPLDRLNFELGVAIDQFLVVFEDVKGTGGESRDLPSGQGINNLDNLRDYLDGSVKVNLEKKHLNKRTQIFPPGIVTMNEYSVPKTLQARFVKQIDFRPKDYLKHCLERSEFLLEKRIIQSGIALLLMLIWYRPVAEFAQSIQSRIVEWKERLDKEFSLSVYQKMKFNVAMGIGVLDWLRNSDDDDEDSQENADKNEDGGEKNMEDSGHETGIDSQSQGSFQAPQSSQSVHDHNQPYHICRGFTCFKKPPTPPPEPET
Chain of Cytochrome P450 2C19 (P33261 whole entry): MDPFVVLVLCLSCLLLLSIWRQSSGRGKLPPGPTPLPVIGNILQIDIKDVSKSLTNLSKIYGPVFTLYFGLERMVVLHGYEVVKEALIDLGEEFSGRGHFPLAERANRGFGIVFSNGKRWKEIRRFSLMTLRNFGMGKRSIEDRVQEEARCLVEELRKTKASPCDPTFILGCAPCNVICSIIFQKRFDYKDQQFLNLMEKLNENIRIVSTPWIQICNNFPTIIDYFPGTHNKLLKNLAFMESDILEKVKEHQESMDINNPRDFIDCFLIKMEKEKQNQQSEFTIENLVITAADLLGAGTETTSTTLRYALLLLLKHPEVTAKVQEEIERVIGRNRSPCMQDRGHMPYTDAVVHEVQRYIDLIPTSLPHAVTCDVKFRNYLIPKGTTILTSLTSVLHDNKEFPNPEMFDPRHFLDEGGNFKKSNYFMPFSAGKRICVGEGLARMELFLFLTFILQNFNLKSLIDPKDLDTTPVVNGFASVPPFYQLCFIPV

COc1ccc(/C=C/C(=O)c2nc3ccccc3n2CC(=O)c2ccc(OC)cc2)cc1
IC50 [1]: > 100 µM (inactive)

C[C@@]12CC[C@H]3[C@@H](CCC4=CC(=O)CC[C@]43C)[C@H]1CC[C@H]2C(=O)CO
AC50 [2]: inconclusive

CCOc1cc(/C=C2/C(=N)N3N=C(c4ccccc4)SC3=NC2=O)ccc1O
IC50 [3]: 10.2 µM (active) | IC50 [4]: 30.1 µM (active) | IC50 [5]: 3.61 µM (active)

S=C1SCN(Cc2cccnc2)CN1Cc1cccnc1
AC50 [6]: 3.62 µM (active) | EC50 [7]: 4.49 µM (active) | CC50 [8]: 10.4 µM (active) | AC50 [9]: 4.53 µM (active) | EC50 [10]: > 195 µM (not active) | EC50 [11]: 2.48 µM (active) | EC50 [12]: 8.06 µM (inconclusive) | EC50 [13]: 26.1 µM (active)

COc1cc(NC(=O)c2csc(N)n2)cc(C(=O)Nc2cccc(C(F)(F)F)c2)c1
AC50 [14]: 2.19 µM (active) | EC50 [7]: 52.4 µM (inconclusive) | EC50 [11]: 8.47 µM (inconclusive) | EC50 [12]: 4.71 µM (active) | EC50 [13]: 111 µM (active)

CCSc1ncnc2c1sc1nc(-c3ccco3)c3c(c12)CC(C)(C)OC3
AC50 [15]: 2 µM (inconclusive) | AC50 [2]: inconclusive

N#Cc1ccc(CN2CCC3(CC2)CCN(C(=O)Oc2ccccc2)CC3)cc1
AC50 [2]: inconclusive

COc1ccccc1Nc1nc(-c2sc(NC(=O)c3ccc([N+](=O)[O-])cc3)nc2C)cs1
IC50 [5]: 0.449 µM (active) | AC50 [16]: 1.58 µM (inconclusive) | AC50 [15]: 3.55 µM (inconclusive)

CC(=O)O[C@H]1CC[C@@]2(C)[C@@H](CC[C@H]3[C@H]2CC(=O)[C@@]2(C)[C@@H]3C[C@H]3CC(C)=CC(=O)[C@H]32)C1
AC50 [2]: inconclusive

Cc1nc(Oc2ccccc2)c2oc3ccccc3c2n1
IC50 [1]: > 100 µM (inactive)

COc1ccc(C(=O)C2CCCN(Cc3cccn3-c3ccccn3)C2)c(OC)c1 (stereo unspecified)
AC50 [17]: 21.8 µM (active)

O=C(Oc1ccccc1)N1CCC2(CC1)CCN(c1ccccc1)CC2
AC50 [2]: inconclusive

O=C(/C=C/c1ccc(Cl)cc1)Nc1ccc(CN2CCOCC2)cc1
IC50 [1]: 14.3 µM (active)

COc1ccc(NC2CC(=O)N(CCc3ccccc3)C2=O)cc1 (stereo unspecified)
IC50 [1]: > 100 µM (inactive)

Clc1ccc2c(c1)c1cc(Cl)ccc1n2CN1CCOCC1
CC50 [18]: 17.9 µM (active) | IC50 [1]: 74.5 µM (inactive)

CCOC(=O)c1c(C)c(C)n2c1NC(=O)C2
IC50 [1]: > 100 µM (inactive)

Cc1nc2ccc3nc(NC(=O)c4ccc(S(=O)(=O)N5CCOCC5)cc4)sc3c2s1
AC50 [2]: inconclusive

O=C(NCc1nc2ccccc2[nH]1)C1=C[C@H](C2CCCCC2)C[C@H](OCc2ccc(CO)cc2)O1
CC50 [8]: 16.1 µM (active) | IC50 [1]: > 100 µM (inactive)

Cc1ccc2c(c1)[C@H]1[C@H](CO2)[C@H](c2ccccc2)[C@]2(C)C(=O)N(CC3CCCO3)CC(=O)N12 (stereo partly specified)
AC50 [19]: 4.49 µM (active) | AC50 [20]: 2.05 µM (active) | AC50 [21]: 2.63 µM (active) | AC50 [22]: 9.2 µM (active)

C#CC[N+](CC)(CC)CC#Cc1cccc(Cl)c1.[Br-]
AC50 [23]: 2.24 µM (inconclusive) | AC50 [2]: inconclusive

CC[C@]1(C(=O)OC)[C@H]2C(=O)N(Cc3ccccc3)C(=O)[C@H]2[C@H]2CN=C(SCc3ccc(C)cc3)N21
AC50 [19]: 3.14 µM (active) | AC50 [20]: 1.56 µM (active) | AC50 [21]: 2.43 µM (active) | AC50 [22]: 3.41 µM (active)

O=C1[C@H]2[C@@H](C3CC3)N3C(=O)CN(CC4CC4)C(=O)[C@@]3(Cc3ccccc3)[C@H]2C(=O)N1c1ccccc1
AC50 [19]: 3.51 µM (active) | AC50 [20]: 3.84 µM (active) | AC50 [21]: 1.76 µM (active) | AC50 [22]: 1.69 µM (active)

C[C@@H]1CN([C@H](C)CO)C(=O)Cc2cc(NC(=O)Cc3ccccc3)ccc2O[C@@H]1CN(C)Cc1ccc(Cl)c(Cl)c1
AC50 [24]: 2.51 µM (active)

C/C=C/c1ccc([C@H]2[C@@H](CO)N(Cc3ccccn3)[C@H]2CNC(=O)CC)cc1
AC50 [17]: 53.3 µM (active)

C[C@H]1CN([C@@H](C)CO)C(=O)c2cccc(NC(=O)Nc3cccc4ccccc34)c2O[C@H]1CN(C)Cc1ccc(C(=O)Nc2ccccc2N)cc1
AC50 [24]: 3.59 µM (active)

C[C@@H]1CN([C@H](C)CO)C(=O)c2cccc(NS(=O)(=O)c3cccs3)c2O[C@@H]1CN(C)Cc1ccc(C(F)(F)F)cc1
AC50 [20]: < 0.26 µM (active) | AC50 [21]: < 0.26 µM (active) | AC50 [22]: 2.1 µM (active)

Reference: ChEMBL document CHEMBL1201862, “PubChem BioAssay data set” (2004)
